For data set [1], the system named is Downey Mildew fungus on lettuce. Particulars: in vivo.
The format of data set [2] is physicochemical. From the text:
[…]. 55 grams phosphorous acid crystals were blended with 42 grams urea pills and stirred in a covered container at room temperature. […].

Experimental findings from patent US8076266B2, “Urea phosphite fungicide” (Lidochem, Inc., priority 2004, dated 2011) are described below.

Take `NC(N)=O.OP(O)O` [Urea Phosphite]: in data set [1], the “Downey mildew rating, Mean of 4 Replications” value was 3.93; the Pathological acerbation result is given as “no indication of pathological acerbation”; the Ranking is on record as 1.
Urea Phosphite [Example 4]: in data set [2], the “Stability of liquid on heating / cooling” value was “stable upon heating to 90 °C and crystals formed upon cooling”.
“potassium phosphite [1 (potassium phosphite)]”: in data set [1], the “Downey mildew rating, Mean of 4 Replications” value is 4.62 and the Ranking was 3.
The like results for “potassium phosphite [2 (potassium phosphite)]” were, in that order, 4.81 and 4.
Consider urea phosphite [Example 2], for which, in data set [2], the “Stability of liquid on heating / cooling” value is “stable upon heating to 90 °C or cooling to 0 °C”.
